Results: patent publication US8778966B2, “Quinolinone derivatives as PARP and tank inhibitors” (Janssen Pharmaceutica, NV, priority 2007, dated 2014)
Where two headings read alike, the source gives them in different places.

Experiments:
[1] = tested on: HCT116 cells; assay: Antiproliferative activity, Alamar Blue assay, HCT116 cells; type: cell-based, human; parameters: key to HCT116 antiproliferative activity pIC50: pIC50 = -log IC50 (IC50: conc. reducing growth to 50% of control); details: for IC50: Homo sapiens, HCT-116, HCT116 cells, read-out: HCT116 antiproliferative activity pIC50 (converted)
Procedure, shortened: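 Readout is resazurin fluorescence (ex 540, em 590 nm) after a 4 h dye incubation at 37 °C, following 4-day compound treatment of HCT116 cells plated 24 h earlier. Results expressed as % viable cells versus untreated; pIC50 derived from probit-fitted IC50.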

[2] = tested on: PC-3 cells; assay: Antiproliferative activity, Alamar Blue assay, PC-3 cells; type: cell-based, human; details: for IC50: Homo sapiens, PC-3, PC3 cells, read-out: PC3 antiproliferative activity pIC50 (converted); for PC3 antiproliferative activity pIC50: PC3 cells
Procedure, shortened: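 Resazurin-based fluorescence (540 nm ex/590 nm em) measured after 4-day compound treatment plus 24 hrs dye incubation at 37° C. Cells plated at 4.5×10^3 cells/ml, adhered 24 hr first. pIC50 from probit-derived IC50 on % viable cells versus untreated, triplicate wells.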

[3] = tested on: tubulin; assay: Tubulin polymerization assay; type: biochemical; parameters: key: a compound showing 0 to 50% inhibition at 20 μM is reported as score 1; Score 2 compounds are defined as compound showing more than 50% inhibition at 20 μM and less than 50% inhibition at 5 μM; a compound showing more than 50% inhibition at 5 μM is reported as score 3; details: tested at 20 μM and 5 μM
Procedure, shortened: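 Cytoskeleton kit tubulin was run in a 10 µl final volume at 37 °C, with fluorescence read every minute for 1 h. Polymerization was taken as the maximum slope (4-point linear regression) and expressed as % of no-compound control. Compounds were tested at 20 µM, then at 5 µM if inhibition exceeded 50%, and scored by % inhibition.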

[4] = tested on: PC3 cells; assay: EB1 Comet (microtubule disruption) assay; type: cell-based, human; details: 1 hour treatment; for minimal effective concentration: Homo sapiens, PC-3, 1 h, read-out: EB1 pLAC (converted)
Procedure, shortened: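 Readout is loss of Eb1 plus-end foci, scored by immunofluorescence microscopy, in PC3 cells after 1 h compound treatment at 37 °C with 0.6% final DMSO. LAC is defined as the lowest concentration leaving at least 50% of cells without Eb1 foci.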

| Compound | IC50 [1] | IC50 [2] | tubulin polymerisation score [3] | minimal effective concentration [4] | IC50 ([1]; Alamar Blue) | IC50 ([2]; Alamar Blue) | PC3 antiproliferative activity pIC50 [2] | HCT116 antiproliferative activity pIC50 ([1]; HCT116 cells) | EB1 pLAC [4] |
| --- | --- | --- | --- | --- | --- | --- | --- | --- | --- |
| CCc1cc2ccc([C@@](C)(C#N)Cc3ccccc3)cc2[nH]c1=O (single isomer, unassigned) [Compound 46] | 158 nM | 398 nM | 2 | 0.1 µM |  |  |  |  |  |
| CCc1cc2ccc([C@](C)(C#N)Cc3nc(OC)cc(OC)n3)cc2[nH]c1=O (single isomer, unassigned) [Compound 52] |  |  | 1 (a compound showing 0 to 50% inhibition at 20 μM is reported as score 1) | 3.16 µM | 5010 nM | 7940 nM |  |  |  |
| CCc1cc2ccc([C@@](C)(C#N)Cc3nc(OC)cc(OC)n3)cc2[nH]c1=O (single isomer, unassigned) [Compound 53] |  |  | 3 (a compound showing more than 50% inhibition at 5 μM is reported as score 3) | 0.0316 µM | 39.8 nM | 39.8 nM |  |  |  |
| CCc1cc2ccc(C(C)(C#N)Cc3nnsc3Cl)cc2[nH]c1=O (centres unmarked) [Compound 42] | 158 nM | 316 nM | 1 (a compound showing 0 to 50% inhibition at 20 μM is reported as score 1) | 0.1 µM |  |  |  |  |  |
| CCc1cc2ccc(C(C)(C#N)Cc3cccc(N4CCN(C)CC4)c3)cc2[nH]c1=O (centres unmarked) [Compound 66] | 5010 nM | 5010 nM | 1 (a compound showing 0 to 50% inhibition at 20 μM is reported as score 1) |  |  |  |  |  |  |
| Cc1cc2ccc(C(C)(C#N)Cc3nc4ccccc4s3)cc2[nH]c1=O (centres unmarked) [Compound 75] | 126 nM | 200 nM | 1 (a compound showing 0 to 50% inhibition at 20 μM is reported as score 1) | 0.316 µM |  |  |  |  |  |
| CCc1cc2ccc(C(C)(C#N)Cc3ccc(OC)c(C#N)c3)cc2[nH]c1=O (centres unmarked) [Compound 77] | 1000 nM | 1580 nM |  | 1 µM |  |  |  |  |  |
| CCc1cc2ccc(C(C)(C#N)Cc3cc(C)ccc3C)cc2[nH]c1=O (centres unmarked) [Compound 78] | 398 nM | 398 nM |  | 0.1 µM |  |  |  |  |  |
| CCc1cc2ccc(C(C)(C#N)Cc3ccc(F)c(C)c3)cc2[nH]c1=O (centres unmarked) [Compound 79] | 794 nM | 794 nM |  | 1 µM |  |  |  |  |  |
| CCc1cc2ccc(C(C)(C#N)Cc3cc(Cl)ccc3OC)cc2[nH]c1=O (centres unmarked) [Compound 80] | 501 nM | 398 nM |  | 0.1 µM |  |  |  |  |  |
| CCc1cc2ccc(C(C)(C#N)Cc3cccc(Br)c3C)cc2[nH]c1=O (centres unmarked) [Compound 81] | 316 nM | 501 nM |  | 0.316 µM |  |  |  |  |  |
| CCc1cc2ccc(C(C)(C#N)Cc3ccc(Cl)c(C(F)(F)F)c3)cc2[nH]c1=O (centres unmarked) [Compound 82] | 316 nM | 631 nM |  | 1 µM |  |  |  |  |  |
| CCc1cc2ccc(C(C)(C#N)Cc3ccc(C)c(F)c3F)cc2[nH]c1=O (centres unmarked) [Compound 83] | 1000 nM | 2000 nM |  | 1 µM |  |  |  |  |  |
| CCc1cc2ccc(C(C)(C#N)Cc3c(C)cccc3C)cc2[nH]c1=O (centres unmarked) [Compound 84] | 2000 nM | 3980 nM |  | 1 µM |  |  |  |  |  |
| CCc1cc2ccc(C(C)(C#N)Cc3nc4ccccc4o3)cc2[nH]c1=O (centres unmarked) [Compound 85] | 316 nM | 1000 nM | 1 (a compound showing 0 to 50% inhibition at 20 μM is reported as score 1) | 0.316 µM |  |  |  |  |  |
| CCc1cc2ccc(C(C)(C#N)Cc3csc(C)n3)cc2[nH]c1=O (centres unmarked) [Compound 86] | 5010 nM | 6310 nM |  | 3.16 µM |  |  |  |  |  |
| CCc1cc2ccc(C(C)(C#N)Cc3ccc4nccnc4c3)cc2[nH]c1=O (centres unmarked) [Compound 87] | 1000 nM | 1000 nM |  | 3.16 µM |  |  |  |  |  |

| Compound | IC50 [1] | IC50 [2] | tubulin polymerisation score [3] | minimal effective concentration [4] | IC50 ([1]; Alamar Blue) | IC50 ([2]; Alamar Blue) | PC3 antiproliferative activity pIC50 [2] | HCT116 antiproliferative activity pIC50 ([1]; HCT116 cells) | EB1 pLAC [4] |
| --- | --- | --- | --- | --- | --- | --- | --- | --- | --- |
| CCc1cc2ccc(C(C)(C#N)Cc3cc(Cl)cc4c3OCOC4)cc2[nH]c1=O (centres unmarked) [Compound 90] | 1000 nM |  |  | 1 µM |  |  | 5.8 |  |  |
| CCc1cc2ccc(C(C)(C#N)Cc3cc4c(cc3Cl)OCO4)cc2[nH]c1=O (centres unmarked) [Compound 91] | 501 nM | 398 nM |  | 0.1 µM |  |  |  |  |  |
| CCc1cc2ccc(C(C)(C#N)Cc3cc(Cl)cc4c3OCOC4)cc2[nH]c1=O (centres unmarked) [Compound 92] |  |  |  |  |  |  | 5.4 | 5.8 | 6 |
| CCc1cc2ccc(C(C)(C#N)Cc3nn(C)c4ccccc34)cc2[nH]c1=O (centres unmarked) [Compound 95] | 251 nM | 631 nM | 2 |  |  |  |  |  |  |
| CCc1cc2ccc(C(C)(C#N)Cc3cn4ccccc4n3)cc2[nH]c1=O (centres unmarked) [Compound 96] | 5010 nM | > 10000 nM | 1 (a compound showing 0 to 50% inhibition at 20 μM is reported as score 1) |  |  |  |  |  |  |
| CCc1cc2ccc(C(C)(C#N)Cc3ccncc3)cc2[nH]c1=O (centres unmarked) [Compound 98] | > 10000 nM | > 10000 nM | 1 (a compound showing 0 to 50% inhibition at 20 μM is reported as score 1) |  |  |  |  |  |  |
| CCc1cc2ccc(C(C)(C#N)Cc3cc(Cl)ccc3Cl)cc2[nH]c1=O (centres unmarked) [Compound 99] | 79.4 nM | 398 nM | 3 (a compound showing more than 50% inhibition at 5 μM is reported as score 3) | 0.1 µM |  |  |  |  |  |
| CCc1cc2ccc(C(C)(C#N)Cc3ccccc3C#N)cc2[nH]c1=O (centres unmarked) [Compound 101] | 2510 nM | 3160 nM |  | 1 µM |  |  |  |  |  |
| CCc1cc2ccc(C(C)(C#N)Cc3ccccc3OC(F)(F)F)cc2[nH]c1=O (centres unmarked) [Compound 102] | 2000 nM | 1000 nM |  | 3.16 µM |  |  |  |  |  |
| CCc1cc2ccc(C(C)(C#N)Cc3ccccc3C(F)(F)F)cc2[nH]c1=O (centres unmarked) [Compound 103] | 1000 nM | 631 nM |  | 0.316 µM |  |  |  |  |  |
| Cc1cc2ccc(C(C)(C#N)Cc3cc4ccccc4[nH]3)cc2[nH]c1=O (centres unmarked) [Compound 234] |  |  |  | > 10 µM | 5010 nM | 10000 nM |  |  |  |
| CCc1cc2ccc(C(C)(C#N)Cc3ccc(F)c(C#N)c3)cc2[nH]c1=O (centres unmarked) [Compound 267] |  |  | 2 | 0.1 µM | 200 nM | 501 nM |  |  |  |
| CCc1cc2ccc(C(C)(C#N)CCOc3ccccc3C#N)cc2[nH]c1=O (centres unmarked) [Compound 276] |  |  | 1 (a compound showing 0 to 50% inhibition at 20 μM is reported as score 1) |  | 1580 nM | 2510 nM |  |  |  |
| CCc1cc2ccc(C(C)(C#N)CCOc3cc(Cl)c(Cl)cc3Cl)cc2[nH]c1=O (centres unmarked) [Compound 277] |  |  | 2 |  | 501 nM | 501 nM |  |  |  |
| CCc1cc2ccc(C(C)(C#N)CCOc3ccccc3F)cc2[nH]c1=O (centres unmarked) [Compound 278] |  |  |  | 1 µM | 1580 nM | 2000 nM |  |  |  |
| CCc1cc2ccc(C(C)(C#N)CCOc3ccc4c(c3)OCO4)cc2[nH]c1=O (centres unmarked) [Compound 279] |  |  |  | 1 µM | 1260 nM | 1580 nM |  |  |  |
| CCc1cc2ccc(C(C)(C#N)Cc3cc(OC)cc(OC)c3)cc2[nH]c1=O (centres unmarked) [Compound 332] |  |  |  | 0.316 µM | 100 nM | 251 nM |  |  |  |
